Assay results taken from publication PMC2717725 (Journal of medicinal chemistry, 2008).
Counter-ions that a name gives are not always drawn.

Columns and labels:
[1] = system: GSK-3 -phosphorylated β-catenin; assay: β-catenin phosphorylation at GSK-3 sites in SH-SY5Y cells; type: cell-based, human; conditions: 6 h, 10 μM or dose-response, 2 μM MG132
[2] = target: CDK1/cyclin B; assay: CDK1/cyclin B kinase assay; type: biochemical, starfish (Marthasterias glacialis); conditions: read-out: CDK1 IC50, 15 μM ATP
[3] = target: GSK-3α/β; assay: GSK-3α/β kinase assay; type: biochemical, porcine; conditions: for IC50: read-out: GSK3 IC50, GSK-3α/β, 15 μM ATP, from dose-response curves
[4] = Equilibrium water solubility; type: physicochemical
[5] = system: Rat-1 fibroblasts; assay: Luminescence assay of circadian rhythmicity, PPer2::Fluc reporter; type: cell-based; conditions: 10 μM, Rat-1 PPer2::Fluc, monitored 4 days
[6] = system: Rat-1 fibroblasts; conditions: lithium 10-20 mM, mammalian cells; cited from earlier work

IC50 [2] | Compound | inhibition of β-catenin phosphorylation at GSK-3 specific sites [1] | further results
 | CN1C(=O)C(=C2Nc3ccccc3C2=NO)c2ccc(Br)cc21 [1-methyl-6BIO, reference compound] | ineffective | 
> 10000 nM | O=C1Nc2cc(Br)ccc2/C1=C1/Nc2ccccc2/C1=N\OCCBr [Compound 1, (2′Z-3′E)-6-Bromoindirubin-3′-[O-(2-bromoethyl)-oxime]] |  | 
> 10000 nM | O=C1Nc2cc(Br)ccc2/C1=C1/Nc2ccccc2/C1=N\OCCO [Compound 2, (2′Z-3′E)-6-Bromoindirubin-3′-[O-(2-hydroxyethyl)-oxime]] |  | IC50 [3]: 3 nM
110 nM | O=C1Nc2cc(Br)ccc2/C1=C1/Nc2ccccc2/C1=N\OCC(O)CO (stereo not drawn) [Compound 3, (2′Z-3′E)-6-Bromoindirubin-3′-[O-(2,3-dihydroxypropyl)-oxime]] | most efficient | decrease of activity/affinity on GSK-3 compared to 6BIO ([3]; relative to 6BIO): 6 fold; solubility change versus 6BIO (in words) ([4]; water): mediocre improvement of solubility
> 10000 nM | CCN(CC)C(=O)O/N=C1/C(=C2/C(=O)Nc3cc(Br)ccc32)Nc2ccccc21 [Compound 4, (2′Z-3′E)-6-Bromoindirubin-3′-[O-(N,N-diethylcarbamyl)-oxime]] |  | 
 | CN(C)CCO/N=C1/C(=C2/C(=O)Nc3cc(Br)ccc32)Nc2ccccc21 [Compound 5, (2′Z-3′E)-6-Bromoindirubin-3′-[O-(2-dimethylaminoethyl)-oxime]] | most efficient | 
500 nM | O=C1Nc2cc(Br)ccc2/C1=C1/Nc2ccccc2/C1=N\OCCN1CCCC1 [Compound 7, (2′Z-3′E)-6-Bromoindirubin-3′-[O-(2-pyrrolidin-1-ylethyl)oxime]] |  | 
 | O=C1Nc2cc(Br)ccc2/C1=C1/Nc2ccccc2/C1=N\OCCN(CCO)CCO [Compound 9] | most efficient | 
 | O=C1Nc2cc(Br)ccc2/C1=C1/Nc2ccccc2/C1=N\OCCN1CCNCC1 [Compound 11, (2′Z-3′E)-6-Bromoindirubin-3′-[O-(2-piperazine-1-ylethyl)oxime]] | most efficient | 
 | CN1CCN(CCO/N=C2/C(=C3/C(=O)Nc4cc(Br)ccc43)Nc3ccccc32)CC1 [Compound 12, (2′Z-3′E)-6-Bromoindirubin-3′-{O-[2-(4-methyl-piperazin-1-yl)ethyl]oxime}] | most efficient | selectivity for GSK-3 versus 6BIO ([3]; GSK-3 over CDKs, compared to 6BIO): improved selectivity of one order of magnitude
 | O=C1Nc2cc(Br)ccc2/C1=C1/Nc2ccccc2/C1=N\OCCN1CCN(CCO)CC1 [Compound 13, (2′Z-3′E)-6-Bromoindirubin-3′-(O-{2-[4-(2-hydroxyethyl)piperazin-1-yl]ethyl}oxime)] | most efficient | 
900 nM | O=C1Nc2cc(Br)ccc2/C1=C1/Nc2ccccc2/C1=N\OCCN1CCN(CCOCCO)CC1 [Compound 15, (2′Z-3′E)-6-Bromoindirubin-3′-[O-(2-{4-[2-(2-hydroxyethoxy)-ethyl]piperazin-1-yl}ethyl)oxime]] |  | effect on circadian period length [5]: gradual shortening of the period length
 | CN(C)CCO/N=C1/C(=C2/C(=O)Nc3cc(Br)ccc32)Nc2ccccc21.Cl [Compound 16, (2′Z-3′E)-6-Bromoindirubin-3′-[O-(2-dimethylaminoethyl)oxime] Hydrochloride] | most efficient | 
450 nM | O=C1Nc2cc(Br)ccc2/C1=C1/Nc2ccccc2/C1=N\OCCN1CCCC1 [Compound 18, (2′Z-3′E)-6-Bromoindirubin-3′-[O-(2-pyrrolidin-1-ylethyl)oxime] Hydrochloride] |  | 
 | Cl.O=C1Nc2cc(Br)ccc2/C1=C1/Nc2ccccc2/C1=N\OCCN(CCO)CCO [Compound 20] | most efficient | 
150 nM | CN(CCON=C1C(=C2C(=O)Nc3cc(Br)ccc32)Nc2ccccc21)CC(O)CO.Cl (stereo not drawn) [Compound 21, (2Z-3′E)-6-Bromoindirubin-3′-(O-{2-[N-methyl, N-(2,3-dihydroxypropyl)amino]ethyl}oxime] Hydrochloride] |  | IC50 [3]: 23 nM; solubility ([4]; double distilled water): 1450 µg/mL
 | Cl.Cl.O=C1Nc2cc(Br)ccc2/C1=C1/Nc2ccccc2/C1=N\OCCN1CCNCC1 [Compound 22, (2′Z-3′E)-6-Bromoindirubin-3′-[O-(2-piperazine-1-ylethyl)oxime] Dihydrochloride] | most efficient | 
 | CN1CCN(CCO/N=C2/C(=C3/C(=O)Nc4cc(Br)ccc43)Nc3ccccc32)CC1.Cl.Cl [Compound 23, (2′Z-3′E)-6-Bromoindirubin-3′-{O-[2-(4-methylpiperazin-1-yl)ethyl]oxime} Dihydrochloride] | most efficient | 
 | Cl.Cl.O=C1Nc2cc(Br)ccc2/C1=C1/Nc2ccccc2/C1=N\OCCN1CCN(CCO)CC1 [Compound 24, (2′Z-3E)-6-Bromoindirubin-3′-(O-{2-[4-(2-hydroxyethyl)piperazin-1-yl]ethyl}oxime) Dihydrochloride] | most efficient | 
1000 nM | COCCN1CCN(CCO/N=C2/C(=C3/C(=O)Nc4cc(Br)ccc43)Nc3ccccc32)CC1 [Compound 25, (2′Z-3E)-6-Bromoindirubin-3′-(O-{2-[4-(2-methoxyethyl)piperazin-1-yl]ethyl}oxime) Dihydrochloride] |  | 
500 nM | O=C1Nc2cc(Br)ccc2/C1=C1/Nc2ccccc2/C1=N\OCCN1CCN(CCOCCO)CC1 [Compound 26, (2′Z-3′E)-6-Bromoindirubin-3′-[O-(2-{4-[2-(2-hydroxyethoxy)-ethyl]piperazin-1-yl}ethyl)oxime] Dihydrochloride] |  | 
 | [Li] [Lithium] |  | effect on circadian period [6]: lengthens the period
